From patent US20030228357A1, “Dry granulated formulations of azithromycin” (Pfizer Inc., priority 2002, published 2003)
Entries after “also recorded” stand apart in the source; their conditions may differ.

Experiments:
Type in all cases: physicochemical
[1] = Tablet friability, Vanderkamp Friabulator (100 rotations/4 minutes)
Protocol: Friability is a standard test known to one skilled in the art. Friability is measured under standardized conditions by weighing out a certain number of tablets (generally 20 tablets or less), placing them in a rotating Plexiglas drum in which they are lifted during replicate revolutions by a radial lever, and then dropped approximately 8 inches. After replicate revolutions (typically 100 revolutions at 25 rpm), the tablets are reweighed and the percentage of formulation abraded or chipped is calculated. The friability of the tablets, of the present invention, is preferably in the range of about 0% to 3%, and values about 1%, or less, are considered acceptable for most drug and food tablet contexts. Friability which approaches 0% is particularly preferred.
(§1) All four formulations were compressed on the compaction simulator using either 0.344″×0.688″ oval tooling, or ½″ standard round concave (SRC) tooling. The tablets were tested for hardness (kP scale), using a Schleuniger hardness tablet tester (Dr. Schleuniger Pharmatron AG, Solothurn, Switzerland), and for friability (100 rotations/4 minutes) using a Vanderkamp Friabulator Tablet Tester (Vankel, Cary, N.C., US).

[2] = Density and Carr's Compressibility Index (flowability) of dry blends and dry granulations
Description: Carr's Compressibility Index was used to evaluate the flowability of the four dry granulations. Carr's Compressibility Index is a simple test to evaluate flowability by comparing both the initial and final (tapped) bulk volumes and the rate of packing down. A useful empirical guide to flow is given by Carr's compressibility index: Compressibility Index(%)=[(tapped density−initial density)/tapped density]×100 […] The procedure is described in Int. J. Pharm. Tech. & Prod. Mfr., 6(3) 10-16, 1985.

[3] = Tablet hardness, Schleuniger hardness tablet tester
[4] = Slug (compact) hardness, Schleuniger hardness tablet tester
Description: A compaction simulator was used to compress the blends. The compaction simulator was designed as a single station tablet press in which the compression dwell time can be adjusted to simulate different types of tablet presses. All the formulations were slugged on the compaction simulator configured as the Kilian RX-67 press with a dwell time of 0.3145 seconds using […] round flat face tooling. The slugs were then comminuted using a Fitz mill with a 0.125″ screen with knives forward and run at slow speed. […] The slugs were tested for hardness (kP scale), using a Schleuniger hardness tablet tester (Dr. Schleuniger Pharmatron AG, Solothurn, Switzerland).

[5] = Indices of tableting performance (Hiestand) of bulk azithromycin; conditions: forms N, M, G, A milled, F and J unmilled
Protocol: Indices of tableting performance, for several azithromycin forms, were assessed to identify any mechanical deficiencies or attributes that may affect tablet formulation for these azithromycin forms. This assessment was performed in accordance with the procedures described in “Indices of Tableting, Performance” […] and D. P. Smith, Powder Technology 38 [1984] pp. 145-159. Specifically, the Brittle Fracture Index, BFI, was calculated from the ratio of a material's regular tensile strength to its compromised tensile strength. Strain Index, SI, was determined from the dynamic indentation hardness test. Worst Case Bonding Index was determined by assessing the extent of particle bonding remaining after decompression assuming a very short compression dwell time and a plastic mechanism of particle separation during decompression. Tableting Indices were determined for bulk azithromycin lots of six different crystalline forms, specifically forms N, M, G, A, F and J. Forms N, M and G were milled with a Fitzmill (Model JT, The Fitzpatrick Co., Elmhurst, Ill.) using a 0.027'' screen and knives at high speed in an attempt to match the smaller particle size of milled Form A. Unmilled forms F and J were evaluated “as is” due to their relatively small particle sizes.

[6] = Tablet hardness, Schleuniger hardness tablet tester; remark: listed apart in the source
Protocol: as §1

[7] = Table 2B Run 4, Short blend, Oval tooling, compression force 12 kN
[8] = Table 2B Run 5, Short blend, Oval tooling, compression force 18.7 kN
[9] = Table 3D, high drug loading (58.2 wt % azithromycin), DCP anhydrous, modified capsule shape tablets, target weight 450 mg
[10] = Table 4C, low drug loading, diluent DCP, anhyd., Oval tooling
[11] = Table 4C, low drug loading, diluent DCP, anhyd., SRC (½″) tooling
[12] = Table 4C, low drug loading, diluent DCP, dihyd., Oval tooling
[13] = Table 4C, low drug loading, diluent DCP, dihyd., SRC (½″) tooling
[14] = Table 4D, high drug loading, diluent DCP, anhyd., modified capsule shape
[15] = 35.2 wt % azithromycin, dicalcium phosphate anhydrous diluent, Long blend method
[16] = 35.2 wt % azithromycin, dicalcium phosphate anhydrous diluent, Long blend method, slugged
[17] = 35.2 wt % azithromycin, dicalcium phosphate anhydrous diluent, Short blend method
[18] = 35.2 wt % azithromycin, dicalcium phosphate anhydrous diluent, Short blend method, slugged
[19] = Table 3A, low drug loading: 35.2 wt % azithromycin, 54.8 wt % dicalcium phosphate anhydrous, long blend
[20] = Table 3B, high drug loading: 58.2 wt % azithromycin, 31.8 wt % dicalcium phosphate anhydrous, long blend
[21] = Table 4A, low drug loading (35.2 wt % azithromycin), diluent DCP, anhyd.
[22] = Table 4A, low drug loading (35.2 wt % azithromycin), diluent DCP, dihyd.
[23] = Table 4B, high drug loading (58.2 wt % azithromycin), diluent DCP, anhyd.
[24] = Table 4B, high drug loading (58.2 wt % azithromycin), diluent DCP, dihyd.
[25] = Table 7, milled Form A lot, 58.2 wt % azithromycin, DCP anhydrous
[26] = Table 7, unmilled Form A lot, 58.2 wt % azithromycin, DCP anhydrous
[27] = Table 7A, 55.76 wt % azithromycin, lactose anhydrous, corn starch, roller compaction 850 psi, dihydrate
[28] = Table 7 Lot 1, milled, roller compaction, Roll Pressure Setting 850 psi
[29] = Table 7 Lot 2, milled, roller compaction, Roll Pressure Setting 300 psi
[30] = Table 7 Lot 3, unmilled, roller compaction, Roll Pressure Setting 500 psi
[31] = Table 7 Lot 4, unmilled, roller compaction, Roll Pressure Setting 300 psi

For CC[C@H]1OC(=O)[C@H](C)[C@@H](O[C@H]2C[C@@](C)(OC)[C@@H](O)[C@H](C)O2)[C@H](C)[C@@H](O[C@@H]2O[C@H](C)C[C@H](N(C)C)[C@H]2O)[C@](C)(O)C[C@@H](C)CN(C)[C@H](C)[C@@H](O)[C@]1(C)O [Form A, azithromycin dihydrate, reference compound], the Friability ([1]; Table 2A, 35.2 wt % azithromycin, DCP anhydrous, Long blend, Oval tooling) was 2 of 5, the Friability ([1]; Table 2A, 35.2 wt % azithromycin, DCP anhydrous, Long blend, ½″ SRC tooling) was 1.30% and the Friability [1, 7] was “capped”. The Friability [1, 8] was “capped”, the Friability ([1]; Table 3C, low drug loading (35.2 wt % azithromycin), DCP anhydrous, oval tablets, target weight 750 mg, dihydrate) was “broke during friability testing; also recorded: Broken” and the Friability [1, 9] was 0.50%. For the same compound, the Friability [1, 10] was “Broken”, the Friability [1, 11] was 1.30% and the Friability [1, 12] was “Broken”. The Friability [1, 13] was 0.94%, the Friability [1, 14] was 0.50% and the “Dry Blend Carr's Index” value [2, 15] was 44%. For the same compound, the “Dry Blend density As Is” value [2, 15] was 0.59 g/cc, the “Dry Blend density Tapped” value [2, 15] was 1.05 g/cc and the “Granulation Carr's Index” value [2, 16] was 26%. For the same compound, the “Granulation Density As Is” value [2, 16] was 0.88 g/cc, the “Granulation Density Tapped” value [2, 16] was 1.19 g/cc and the “Dry Blend Carr's Index” value [2, 17] was 43%. The “Dry Blend density As Is” value [2, 17] was 0.59 g/cc, the “Dry Blend density Tapped” value [2, 17] was 1.04 g/cc and the “Granulation Carr's Index” value [2, 18] was 32%. For the same compound, the “Granulation Density As Is” value [2, 18] was 0.78 g/cc, the “Granulation Density Tapped” value [2, 18] was 1.14 g/cc and the “Granulation Carr's Index” value [2, 19] was 26%. The “Granulation Density As Is” value [2, 19] was 0.89 g/cc, the “Granulation Density Tapped” value [2, 19] was 1.19 g/cc and the “Granulation Carr's Index” value [2, 20] was 30%. The “Granulation Density As Is” value [2, 20] was 0.67 g/cc, the “Granulation Density Tapped” value [2, 20] was 0.96 g/cc and the “Dry Granulation Carr's Index” value [2, 21] was 26%. For the same compound, the “Dry Granulation Density As Is” value [2, 21] was 0.89 g/cc, the “Dry Granulation Density Tapped” value [2, 21] was 1.19 g/cc and the “Dry Granulation Carr's Index” value [2, 22] was 18%. For the same compound, the “Dry Granulation Density As Is” value [2, 22] was 0.84 g/cc, the “Dry Granulation Density Tapped” value [2, 22] was 1.04 g/cc and the “Dry Granulation Carr's Index” value [2, 23] was 30%. The “Dry Granulation Density As Is” value [2, 23] was 0.67 g/cc, the “Dry Granulation Density Tapped” value [2, 23] was 0.96 g/cc and the “Dry Granulation Carr's Index” value [2, 24] was 25%. For the same compound, the “Dry Granulation Density As Is” value [2, 24] was 0.69 g/cc, the “Dry Granulation Density Tapped” value [2, 24] was 0.92 g/cc and the “Dry Blend Carr's Index” value [2, 25] was 47%. For the same compound, the “Dry Blend density As Is” value [2, 25] was 0.49 g/cc, the “Dry Blend density Tapped” value [2, 25] was 0.92 g/cc and the “Dry Blend Carr's Index” value [2, 26] was 44%. For the same compound, the “Dry Blend density As Is” value [2, 26] was 0.57 g/cc, the “Dry Blend density Tapped” value [2, 26] was 1.01 g/cc and the “Dry Granulation Density Tapped” value ([2]; Table 7A, 55.76 wt % azithromycin, lactose anhydrous, corn starch, roller compaction 850 psi) was 0.86 g/cc. For the same compound, the “Dry Granulation Carr's Index” value [2, 27] was 24%, the “Dry Granulation Density As Is” value [2, 27] was 0.66 g/cc and the “Dry Granulation Carr's Index” value [2, 28] was 39%. The “Dry Granulation Density As Is” value [2, 28] was 0.55 g/cc, the “Dry Granulation Density Tapped” value [2, 28] was 0.91 g/cc and the “Dry Granulation Carr's Index” value [2, 29] was 33%. The “Dry Granulation Density As Is” value [2, 29] was 0.60 g/cc, the “Dry Granulation Density Tapped” value [2, 29] was 0.90 g/cc and the “Dry Granulation Carr's Index” value [2, 30] was 30%. For the same compound, the “Dry Granulation Density As Is” value [2, 30] was 0.64 g/cc, the “Dry Granulation Density Tapped” value [2, 30] was 0.92 g/cc and the “Dry Granulation Carr's Index” value [2, 31] was 26%. The “Dry Granulation Density As Is” value [2, 31] was 0.66 g/cc, the “Dry Granulation Density Tapped” value [2, 31] was 0.92 g/cc and the “Avg Tablet Hardness” value ([3]; Table 2A, 35.2 wt % azithromycin, DCP anhydrous, Long blend, ½″ SRC tooling, 9.6 kN) was 5.8 kP. The “Avg Tab Hardness” value [3, 8] was 8.2 kP, the “Avg Hardness” value ([3]; Table 3C, low drug loading (35.2 wt % azithromycin), DCP anhydrous, oval tablets, target weight 750 mg) was 9.0 kP and the “Avg Hardness” value [3, 9] was 6.2 kP. For the same compound, the “Avg Tablet Hardness” value [3, 11] was 5.8 kP, the “Avg Tablet Hardness” value [3, 12] was 6.8 kP and the “Avg Tablet Hardness” value [3, 14] was 6.2 kP. For the same compound, the “Avg Tablet Hardness” value ([3]; Table 4D, high drug loading, diluent DCP, dihyd., modified capsule shape) was 5.2 kP, the “Avg Slug Hardness” value [4, 15] was 13.4 kP and the “Avg Slug Hardness” value [4, 17] was 13.7 kP. The “Avg Slug Hardness” value [4, 19] was 13 kP, the “Avg Slug Hardness” value [4, 20] was 12 kP and the “Avg Slug Hardness” value [4, 21] was 13 kP. For the same compound, the “Avg Slug Hardness” value [4, 22] was 11 kP, the “Avg Slug Hardness” value [4, 23] was 12 kP and the “Avg Slug Hardness” value [4, 24] was 10 kP. For the same compound, the “Brittle Fracture Index (BFI)” value [5] was 0.10, the “Strain Index (SI)” value ([5]; dihydrate) was 0.0044 and the “Tensile Strength” value ([5]; dihydrate) was 0.99 Mpa. For the same compound, the “Worst Case Bonding Index (BIw) × 10^2” value ([5]; dihydrate) was 0.9, the “Avg Tablet Hardness” value ([6]; Table 2A, 35.2 wt % azithromycin, DCP anhydrous, Long blend, Oval tooling, compression force 13.5 kN (A), 19 kN (F)) was 9.0 kP and the “Avg Tab Hardness” value [6, 7] was 6.8 kP. The “Avg Tablet Hardness” value [6, 10] was 9.0 kP and the “Avg Tablet Hardness” value [6, 13] was 6.2 kP.
